# Experimental data taken from patent US10561661B2, “Purine derivative compounds for medical use” (MANROS THERAPEUTICS, priority 2014, dated 2020).
# “Also recorded” adds a separate entry of the source.
# What was measured:
# [1] = system: mouse alveolar macrophages; test: Lysosomes fusion: Rhodamine-110 processing and pHrodo-Red E. coli Bioparticles in murine alveolar macrophages; format: cell-based
# Method: We added Rhodamine-110 to the cells prior the pHrodo-Red conjugated E. coli Bioparticles® providing simultaneous uptake of both probes into phagosomes. Lysosomes fusion into nascent phagosomes brings proteases including cathepsin and triggers Rhodamine conversion.
# Isolated mouse alveolar macrophages (from cftr^−/− or Δ508F CFTR mice) were cultured adherent on the poly-L-lysine coated glass bottom dishes for 24-48 h. Then they were treated with 10 μM Rhodamine-110 for 20 min at room temperature in the dark with following incubation with 0.1 mg/ml pHrodo-Red conjugated E. coli Bioparticles® for 1 hour at 37° C. […] Then the cells were washed twice with PBS, fixed with 4% PFA. The images were acquired immediately after fixation on Leica SP5 2-photon laser confocal microscope with a 63× (NA1.4) oil objective.
# Isolated mouse macrophages were plated on 96-well plate with a density of 3-6,000 cells (20-60 μm diameter) per well, incubated in complete DMEM (10% FBS, 1% penicillin-streptomycin) at 37° C. under 5% CO2 pressure for 24-48 h. The cells were loaded with 5 μM Rhodamine-110 for 20 min at room temperature in the dark, fed with E. coli Bioparticles® conjugated to pHrodo-Red for 1 h at 37° C.
# DYRK2 = DYRK2 (Homo sapiens, UniProt Q92630); test: IC50 towards inhibition of various kinases: DYRK2; format: biochemical
# [2] = system: human alveolar macrophages; test: Phagosomal acidification, pHrodo Red BioParticles, plate reader; format: cell-based; settings: 10 μM, read over 3 h
# Method: (1C) Comparative effect of various compounds on phagosomal pH in human alveolar macrophages. Data summary from 3-10 patients for each compound tested at 10 μM. Data was obtained in triplicate for each patient and averaged for all patients with error bars indicating the SEM. Data were normalized to fluorescence changes observed in untreated control cells for each patient before averaging.
# Broncho-alveolar lavage from humans was performed on consenting adults following a protocol approved by The University of Chicago Institutional Review Board. The patients included men and women, smokers and non-smokers, undergoing bronchoscopy for cancer biopsies prior to clinical treatment. […]
# In brief, broncho-alveolar lavage fluid was strained through a 70 μm sterile cell strainer into a 50 ml conical tube centrifuge tube with a maximum broncho-alveolar lavage volume of 40 ml and a minimum volume of 10 ml followed by centrifugation at 1000×g for 5 min at 4° C. […] Cells were counted on Countess® (Invitrogen) with a distribution cut-off of 20-60 μm and cell viability determined by trypan blue exclusion. […]
# After 24 h incubation cells were exposed to pHrodo Red BioParticles® (Life Technologies). Acidification was measured on 96-well plate format with 560 and 580 nm excitation and emission wavelengths at 37° C. in a Synergy MX, BioTek® plate reader. […]
# Pseudomonas aeruginosa = test: Growth of P. aeruginosa culture (optical density); format: cell-based; settings: 37° C.
# Method: FIG. 3. Absence of growth inhibition of P. aeruginosa culture by M3 metabolite and derivatives. 1/100 dilution of an overnight culture of P. aeruginosa was introduced in fresh culture medium and cultures were incubated at 37° C. with 20 μM of M3 metabolite or derivatives or 1 μM bafilomycin (negative control). Optical density (600 nm) was measured 2 h and 3.5 h after starting the cultivation, and every 30 min for 2.5 h.
# Pseudomonas aeruginosa DsRed from single colony was grown in gentamicin containing TSB overnight at 37° C. with agitation at 300 RPM. Next day it was started the new culture at 1/100 dilution and certain compound of blocker were added to the tubes. We measured optical density (660 nm) of bacterial culture at every 30 minutes.
# [3] = system: ΔF508 CFTR alveolar macrophages; test: Intracellular Pseudomonas aeruginosa growth (bacterial killing) in ΔF508 CFTR alveolar macrophages, live cell microscopy; format: cell-based, mouse; settings: ΔF508 CFTR expressing alveolar macrophages, 20 μM, 6 h observation
# Method: (§1) FIG. 2. Inhibition of Pseudomonas aeruginosa growth in cftr^−/− and ΔF508 alveolar macrophages by M3 metabolite and derivatives. A comparison of intracellular bacterial growth in single murine alveolar macrophages was carried out using live cell microscopy. Cells were fed DS-Red expressing P. aeruginosa for 30 min (MOI<10). Cells were exposed to M3 metabolite for 20 min prior to exposure to bacteria. Adherent and non-ingested bacteria were then removed by washing and incubation with antibiotics and live alveolar macrophages were observed microscopically for approximately 6 hours.
# (§2) The data are presented as means of fluorescence intensities±SEM. Control conditions summarized data obtained from: WT—2 mice, 38 cells; ΔF508—6 mice, 120 cells; cftr^−/− 4 mice, 87 cells. […] In the presence of M3 metabolite we analysed data from: ΔF508—3 mice, 57 cells; cftr^−/−1 mouse, 67 cells. […]
# [4] = system: cftr−/− alveolar macrophages; test: Intracellular Pseudomonas aeruginosa growth (bacterial killing) in cftr−/− alveolar macrophages, live cell microscopy; format: cell-based, mouse; settings: 20 μM, 6 h observation
# Method: as §1, §2
# DYRK3 = DYRK3 (Homo sapiens, UniProt O43781); test: IC50 towards inhibition of various kinases: DYRK3; format: biochemical
# CLK2 = CLK2 (Homo sapiens, UniProt P49760); test: IC50 towards inhibition of various kinases: CLK2; format: biochemical
# DYRK1B = DYRK1B (Homo sapiens, UniProt Q9Y463); test: IC50 towards inhibition of various kinases: DYRK1B; format: biochemical
# CDK9/cyclin T = CDK9/cyclin T (Homo sapiens, UniProt P50750); test: IC50 towards inhibition of various kinases: CDK9/cyclin T; format: biochemical
# CDK1/cyclin B = test: IC50 towards inhibition of various kinases: CDK1/cyclin B; format: biochemical
# CLK4 = CLK4 (Homo sapiens, UniProt Q9HAZ1); test: IC50 towards inhibition of various kinases: CLK4; format: biochemical
# CLK3 = CLK3 (Homo sapiens, UniProt P49761); test: IC50 towards inhibition of various kinases: CLK3; format: biochemical
# CK1δ/ε = test: IC50 towards inhibition of various kinases: CK1δ/ε; format: biochemical
# CK2 = CK2 (Homo sapiens, UniProt P68400); test: IC50 towards inhibition of various kinases: CK2; format: biochemical
# DYRK1A = DYRK1A (Homo sapiens, UniProt Q13627); test: IC50 towards inhibition of various kinases: DYRK1A; format: biochemical
# PfGSK-3 = PfGSK-3 (Plasmodium falciparum, UniProt O77344); test: biochemical; settings: read-out: IC50 value towards inhibition of PfGSK-3
# GSK-3α/β = test: IC50 towards inhibition of various kinases: GSK-3α/β; format: biochemical
# CLK1 = CLK1 (Homo sapiens, UniProt P49759); test: IC50 towards inhibition of various kinases: CLK1; format: biochemical
# Pim1 = Pim1 (Homo sapiens, UniProt P11309); test: IC50 towards inhibition of various kinases: Pim1; format: biochemical
# kinase = settings: cited from earlier work
# DYRK2, sequence (Q92630 whole entry, species assumed): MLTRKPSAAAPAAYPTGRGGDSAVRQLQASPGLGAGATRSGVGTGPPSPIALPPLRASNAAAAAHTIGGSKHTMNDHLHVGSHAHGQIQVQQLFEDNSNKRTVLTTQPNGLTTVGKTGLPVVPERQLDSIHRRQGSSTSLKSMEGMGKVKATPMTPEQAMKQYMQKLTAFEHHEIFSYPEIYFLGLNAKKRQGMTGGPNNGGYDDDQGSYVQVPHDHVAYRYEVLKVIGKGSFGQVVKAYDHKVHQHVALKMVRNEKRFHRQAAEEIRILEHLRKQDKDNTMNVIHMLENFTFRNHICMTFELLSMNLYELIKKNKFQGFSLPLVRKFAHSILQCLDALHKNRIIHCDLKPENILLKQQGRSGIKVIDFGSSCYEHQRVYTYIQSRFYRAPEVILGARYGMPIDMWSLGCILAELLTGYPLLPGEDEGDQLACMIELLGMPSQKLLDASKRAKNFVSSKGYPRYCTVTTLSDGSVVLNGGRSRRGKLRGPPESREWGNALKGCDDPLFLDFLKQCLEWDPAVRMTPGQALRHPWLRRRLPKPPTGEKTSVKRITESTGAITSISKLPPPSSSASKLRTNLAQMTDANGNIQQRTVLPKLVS
# DYRK3, sequence (O43781 whole entry, species assumed): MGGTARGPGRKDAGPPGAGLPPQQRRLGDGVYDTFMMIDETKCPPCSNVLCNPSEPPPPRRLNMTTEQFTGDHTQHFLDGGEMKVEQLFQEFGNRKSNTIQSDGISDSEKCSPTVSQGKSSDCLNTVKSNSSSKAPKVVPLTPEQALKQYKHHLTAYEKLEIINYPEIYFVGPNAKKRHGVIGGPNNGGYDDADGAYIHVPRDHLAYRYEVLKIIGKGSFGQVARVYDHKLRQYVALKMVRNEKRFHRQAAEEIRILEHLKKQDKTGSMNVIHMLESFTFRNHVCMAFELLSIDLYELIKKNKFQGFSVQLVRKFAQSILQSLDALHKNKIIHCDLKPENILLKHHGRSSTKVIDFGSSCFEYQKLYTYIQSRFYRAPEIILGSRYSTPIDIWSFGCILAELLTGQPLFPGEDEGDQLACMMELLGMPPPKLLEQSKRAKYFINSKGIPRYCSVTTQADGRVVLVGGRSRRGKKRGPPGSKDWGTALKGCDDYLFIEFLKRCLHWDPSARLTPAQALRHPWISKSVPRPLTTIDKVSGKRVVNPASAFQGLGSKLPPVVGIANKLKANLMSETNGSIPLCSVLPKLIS
# CK2, sequence (P68400 whole entry): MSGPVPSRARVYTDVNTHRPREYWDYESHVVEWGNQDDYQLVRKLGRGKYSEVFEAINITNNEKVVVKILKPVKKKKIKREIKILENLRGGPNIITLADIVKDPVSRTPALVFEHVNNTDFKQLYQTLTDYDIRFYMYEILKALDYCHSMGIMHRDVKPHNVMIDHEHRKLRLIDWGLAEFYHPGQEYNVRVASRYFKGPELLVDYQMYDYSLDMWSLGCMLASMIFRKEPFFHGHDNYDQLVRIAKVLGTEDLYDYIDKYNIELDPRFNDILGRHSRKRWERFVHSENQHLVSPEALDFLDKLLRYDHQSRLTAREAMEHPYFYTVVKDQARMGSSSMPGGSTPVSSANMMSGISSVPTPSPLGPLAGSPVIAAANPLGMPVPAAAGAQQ
# CLK3, sequence (P49761 whole entry, species assumed): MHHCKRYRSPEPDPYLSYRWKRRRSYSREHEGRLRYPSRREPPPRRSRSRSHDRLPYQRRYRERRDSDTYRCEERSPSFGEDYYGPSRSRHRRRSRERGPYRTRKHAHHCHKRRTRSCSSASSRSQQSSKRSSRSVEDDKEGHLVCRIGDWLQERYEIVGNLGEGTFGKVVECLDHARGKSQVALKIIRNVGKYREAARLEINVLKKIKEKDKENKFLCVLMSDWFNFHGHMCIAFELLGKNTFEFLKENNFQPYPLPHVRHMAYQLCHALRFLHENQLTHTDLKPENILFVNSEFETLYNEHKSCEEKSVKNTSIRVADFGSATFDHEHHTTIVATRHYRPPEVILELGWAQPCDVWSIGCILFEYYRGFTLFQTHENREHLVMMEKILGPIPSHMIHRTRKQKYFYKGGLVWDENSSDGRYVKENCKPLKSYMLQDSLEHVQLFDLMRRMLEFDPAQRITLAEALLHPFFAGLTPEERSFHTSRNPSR
# PfGSK-3, sequence (O77344 1-440): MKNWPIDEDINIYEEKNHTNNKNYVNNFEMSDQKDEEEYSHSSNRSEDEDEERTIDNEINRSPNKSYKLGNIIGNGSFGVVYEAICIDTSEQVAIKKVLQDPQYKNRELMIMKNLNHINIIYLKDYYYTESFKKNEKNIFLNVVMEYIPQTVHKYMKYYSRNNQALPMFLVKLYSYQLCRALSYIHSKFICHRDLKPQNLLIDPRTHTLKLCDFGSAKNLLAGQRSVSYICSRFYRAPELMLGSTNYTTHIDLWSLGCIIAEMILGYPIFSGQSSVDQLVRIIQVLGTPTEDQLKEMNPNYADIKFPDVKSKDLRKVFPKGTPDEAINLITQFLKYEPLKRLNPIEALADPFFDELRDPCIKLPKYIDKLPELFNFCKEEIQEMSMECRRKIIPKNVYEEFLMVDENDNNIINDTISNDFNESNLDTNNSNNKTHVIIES
# CLK2, sequence (P49760 whole entry, species assumed): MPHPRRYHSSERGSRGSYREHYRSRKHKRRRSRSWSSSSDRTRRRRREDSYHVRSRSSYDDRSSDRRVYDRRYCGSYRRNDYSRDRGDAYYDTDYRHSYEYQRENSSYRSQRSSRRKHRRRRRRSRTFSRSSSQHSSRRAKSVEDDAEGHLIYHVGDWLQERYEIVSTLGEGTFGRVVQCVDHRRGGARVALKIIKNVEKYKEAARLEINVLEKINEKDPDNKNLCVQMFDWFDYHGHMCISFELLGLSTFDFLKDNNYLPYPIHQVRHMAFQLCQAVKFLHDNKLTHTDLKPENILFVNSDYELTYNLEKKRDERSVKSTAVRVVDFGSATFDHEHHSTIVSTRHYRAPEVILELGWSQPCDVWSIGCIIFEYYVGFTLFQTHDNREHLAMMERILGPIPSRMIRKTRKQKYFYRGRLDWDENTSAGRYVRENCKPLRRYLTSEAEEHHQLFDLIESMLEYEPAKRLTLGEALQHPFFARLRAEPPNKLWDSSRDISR
# Pim1, sequence (P11309 whole entry, species assumed): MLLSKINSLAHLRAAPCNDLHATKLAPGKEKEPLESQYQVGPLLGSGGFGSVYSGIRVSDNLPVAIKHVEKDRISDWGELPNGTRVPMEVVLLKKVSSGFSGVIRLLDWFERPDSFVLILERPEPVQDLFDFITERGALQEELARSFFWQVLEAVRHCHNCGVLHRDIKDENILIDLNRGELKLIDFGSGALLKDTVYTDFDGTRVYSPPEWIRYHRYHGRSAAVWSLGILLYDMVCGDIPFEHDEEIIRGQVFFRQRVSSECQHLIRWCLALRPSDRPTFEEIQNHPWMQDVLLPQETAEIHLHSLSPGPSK
# CLK4, sequence (Q9HAZ1 whole entry, species assumed): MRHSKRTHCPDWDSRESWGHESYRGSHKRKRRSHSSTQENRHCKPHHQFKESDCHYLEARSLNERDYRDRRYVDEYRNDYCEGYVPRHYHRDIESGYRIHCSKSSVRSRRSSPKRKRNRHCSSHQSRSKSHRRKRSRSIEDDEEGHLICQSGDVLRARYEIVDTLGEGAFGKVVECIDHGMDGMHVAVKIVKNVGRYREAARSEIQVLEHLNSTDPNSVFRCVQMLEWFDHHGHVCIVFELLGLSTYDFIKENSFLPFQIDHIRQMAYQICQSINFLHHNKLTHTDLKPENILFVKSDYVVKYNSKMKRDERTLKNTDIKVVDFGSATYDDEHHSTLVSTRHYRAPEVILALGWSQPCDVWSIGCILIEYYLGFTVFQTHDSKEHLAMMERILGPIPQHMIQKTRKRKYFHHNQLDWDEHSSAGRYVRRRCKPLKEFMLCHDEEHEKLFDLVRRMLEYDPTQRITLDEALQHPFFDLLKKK
# DYRK1B, sequence (Q9Y463 whole entry, species assumed): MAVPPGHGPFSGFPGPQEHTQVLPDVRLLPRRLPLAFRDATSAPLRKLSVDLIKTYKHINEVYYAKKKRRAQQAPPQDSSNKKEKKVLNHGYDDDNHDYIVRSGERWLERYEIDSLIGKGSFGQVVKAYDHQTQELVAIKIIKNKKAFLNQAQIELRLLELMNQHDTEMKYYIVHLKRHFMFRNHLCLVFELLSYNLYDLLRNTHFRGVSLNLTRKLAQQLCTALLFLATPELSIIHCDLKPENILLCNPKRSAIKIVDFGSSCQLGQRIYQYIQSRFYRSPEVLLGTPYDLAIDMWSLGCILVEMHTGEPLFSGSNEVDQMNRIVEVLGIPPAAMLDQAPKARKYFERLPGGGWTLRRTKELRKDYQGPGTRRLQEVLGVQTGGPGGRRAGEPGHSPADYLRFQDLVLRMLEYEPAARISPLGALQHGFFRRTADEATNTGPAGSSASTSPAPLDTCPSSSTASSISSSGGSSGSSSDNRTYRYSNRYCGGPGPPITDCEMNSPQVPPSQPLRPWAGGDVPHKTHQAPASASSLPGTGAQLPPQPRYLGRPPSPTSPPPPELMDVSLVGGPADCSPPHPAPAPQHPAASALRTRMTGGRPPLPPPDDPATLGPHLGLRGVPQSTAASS
# CLK1, sequence (P49759 whole entry): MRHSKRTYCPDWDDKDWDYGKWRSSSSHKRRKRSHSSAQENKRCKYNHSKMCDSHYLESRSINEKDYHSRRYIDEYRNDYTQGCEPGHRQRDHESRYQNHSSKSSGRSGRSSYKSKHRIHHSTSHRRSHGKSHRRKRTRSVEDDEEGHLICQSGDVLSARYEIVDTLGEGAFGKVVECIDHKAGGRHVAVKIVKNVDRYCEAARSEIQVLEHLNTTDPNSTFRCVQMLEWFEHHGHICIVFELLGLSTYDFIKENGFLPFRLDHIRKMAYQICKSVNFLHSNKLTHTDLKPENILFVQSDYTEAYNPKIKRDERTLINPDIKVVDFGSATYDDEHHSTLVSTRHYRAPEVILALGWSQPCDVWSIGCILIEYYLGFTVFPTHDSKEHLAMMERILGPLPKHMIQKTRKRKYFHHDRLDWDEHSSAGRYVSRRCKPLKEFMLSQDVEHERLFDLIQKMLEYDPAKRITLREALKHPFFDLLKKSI
smiles,measurement,setting,value
"CC[C@H](CO)Nc1nc(NCc2ccccc2)c2ncn(C(C)C)c2n1 [(R)-roscovitine, 2-(R)-(1-ethyl-2-hydroxyethylamino)-6-benzylamino-9-isopropylpurine, reference compound]",fluorescence from pHrodo-Red conjugated E. coli Bioparticles phagocytosis,"[1]; FIG. 4A, alveolar macrophages, compared to control",decreased
same,fluorescence resulting from rhodamine-110 processing by lysosomal proteases,"[1]; FIG. 4A, confocal microscopy, compared to control without compound",increased
same,IC50,DYRK2,2.3 µM
same,phagosomal acidification over phagosomal pH observed in untreated cells,[2],significantly enhance acidification
same,prevention of bacterial growth in culture (optical density),Pseudomonas aeruginosa; 20 μM,unable to prevent bacterial growth
same,rescue of bacterial killing (intracellular P. aeruginosa growth),[3],significantly rescues bacterial killing
same,rescue of bacterial killing (intracellular P. aeruginosa growth),[4],significantly rescues bacterial killing
same,IC50,DYRK3,59 µM
"CC(C)n1cnc2c(NCc3ccccc3)nc(N[C@@H](CO)C(=O)O)nc21 [Compound 6, (2S)-2-[[6-(benzylamino)-9-isopropyl-purin-2-yl]amino]-3-hydroxy-propanoic acid]",melting point,,120 to 130 °C
"CC[C@@H](Nc1nc(NCc2ccccc2)c2ncn(C(C)C)c2n1)C(=O)O [Metabolite M3, (2R)-2-[[9-isopropyl-6-(phenylmethylamino)purin-2-yl]amino]butanoic acid]",IC50,CLK2,14 µM
same,IC50,DYRK1B,22 µM
same,lysosomes fusion / rhodamine-110 processing by lysosomal proteases,"[1]; FIG. 4B, 10 μM, mouse alveolar macrophages, versus control cells, listed as M3 metabolite",increased; also recorded: enhanced lysosomes fusion
same,IC50,CDK9/cyclin T,> 10 µM
same,IC50,CDK1/cyclin B,11 µM
same,IC50,CLK4,19 µM
same,IC50,DYRK2,23 µM
same,IC50,CLK3,52 µM
same,phagosomal acidification over phagosomal pH observed in untreated cells,[2],significantly enhance acidification
same,prevention of bacterial growth in culture (optical density),Pseudomonas aeruginosa; 20 μM,unable to prevent bacterial growth
same,IC50,CK1δ/ε,21 µM
same,rescue of bacterial killing (intracellular P. aeruginosa growth),[3],at least as efficient as with (R)-roscovitine
same,IC50,CK2,> 100 µM
same,IC50,DYRK1A,19 µM
same,IC50,PfGSK-3,> 100 µM
same,IC50,GSK-3α/β,> 100 µM
same,rescue of bacterial killing (intracellular P. aeruginosa growth),[4],at least as efficient as with (R)-roscovitine
same,IC50,CLK1,18 µM
same,IC50,Pim1,> 100 µM
same,kinase inhibiting properties,kinase,does not exhibit kinase inhibiting properties
same,IC50,DYRK3,> 100 µM
CO/C1=C\C(C)=C\[C@@H](C)[C@@H](O)[C@@H](C)C/C(C)=C/C=C/[C@H](OC)[C@@H]([C@@H](C)[C@@H](O)[C@H](C)[C@@]2(O)C[C@@H](O)[C@H](C)[C@@H](C(C)C)O2)OC1=O [bafilomycin],prevention of bacterial growth in culture (optical density),Pseudomonas aeruginosa; 1 μM,unable to prevent bacterial growth
